Tests used:
Albumin [1] = target: T1, Albumin (Bos taurus, UniProt P02769); experiment: Antiglycation activity in bovine serum albumin assessed as inhibition of fructosamines formation at 200 uM in presence of glucose; details: cattle
[2] = Antiglycation activity assessed as inhibition of advanced glycation end product formation at 200 uM; format: physicochemical
[3] = Antioxidant activity assessed as ABTS free radical scavenging activity
[4] = Antiglycation activity assessed as inhibition of Schiff-base formation at 200 uM; format: physicochemical
[5] = Antiglycation activity assessed as inhibition of Schiff-base formation; format: physicochemical
Albumin [6] = target: T1, Albumin; experiment: Antiglycation activity in bovine serum albumin assessed as inhibition of fructosamines formation in presence of glucose
[7] = Antiglycation activity assessed as inhibition of dicarbonyl compounds formation at 200 uM; format: physicochemical
[8] = Antiglycation activity assessed as inhibition of advanced glycation end product formation; format: physicochemical
[9] = Antiglycation activity assessed as inhibition of dicarbonyl compounds formation; format: physicochemical

T1 sequence (P02769 whole entry): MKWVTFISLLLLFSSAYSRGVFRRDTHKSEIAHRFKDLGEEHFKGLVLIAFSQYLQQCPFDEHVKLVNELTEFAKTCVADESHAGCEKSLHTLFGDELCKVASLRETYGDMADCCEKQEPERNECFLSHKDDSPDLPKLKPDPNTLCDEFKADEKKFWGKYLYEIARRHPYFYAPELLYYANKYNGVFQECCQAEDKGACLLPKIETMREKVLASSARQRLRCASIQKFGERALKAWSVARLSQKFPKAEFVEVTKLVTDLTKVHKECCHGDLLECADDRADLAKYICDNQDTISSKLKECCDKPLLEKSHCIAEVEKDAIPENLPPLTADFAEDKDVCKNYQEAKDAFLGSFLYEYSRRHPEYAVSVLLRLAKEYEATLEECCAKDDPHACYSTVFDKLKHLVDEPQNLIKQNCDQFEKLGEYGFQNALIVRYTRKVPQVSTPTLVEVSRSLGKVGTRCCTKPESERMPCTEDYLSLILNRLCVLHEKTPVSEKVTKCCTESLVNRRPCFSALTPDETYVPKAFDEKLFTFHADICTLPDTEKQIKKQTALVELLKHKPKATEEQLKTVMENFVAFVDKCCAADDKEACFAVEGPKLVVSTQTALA

| Structure (SMILES) | inhibition at 200 µM (Albumin [1]) | inhibition (INH) [2] | IC50 [3] | inhibition (INH) [4] | IC50 [5] | IC50 (Albumin [6]) | inhibition (INH) [7] | IC50 [8] | IC50 [9] | inhibition (INH) (Albumin [1]; 200 µM) |
| --- | --- | --- | --- | --- | --- | --- | --- | --- | --- | --- |
| COc1c(O)cc2c(c1O)[C@@H]1O[C@H](CO)[C@@H](O)[C@H](O)[C@H]1OC2=O [BERGENIN] | 20.6% | 75.69% | 2 µM | 109.4% | 0.00054 µM | 164 µM | 102.66% | 187 µM |  |  |
| COc1c(O)cc2c(c1O)[C@@H]1O[C@H](COC(=O)c3cc(O)c(O)c(O)c3)[C@@H](O)[C@H](O)[C@H]1OC2=O | 22.2% | 83.62% | 1.5 µM | 95.96% | 9.06 µM | 184 µM | 102.22% | 12.3 µM |  |  |
| COc1ccc(C(=O)OC[C@H]2O[C@H]3c4c(cc(O)c(OC)c4O)C(=O)O[C@@H]3[C@@H](O)[C@@H]2O)c([N+](=O)[O-])c1 | 17.5% | Not Active | 4.4 µM |  |  |  |  |  |  |  |
| N=C(N)NN [PIMAGEDINE] |  | 79.67% |  |  |  |  |  | 88.9 µM |  |  |
| COc1cc(C(=O)OC[C@H]2O[C@H]3c4c(cc(O)c(OC)c4O)C(=O)O[C@@H]3[C@@H](O)[C@@H]2O)cc(OC)c1OC | 42.1% | Not Active | 3.2 µM |  |  |  |  |  |  |  |

Further lines, results first:

| inhibition at 200 µM (Albumin [1]) | inhibition (INH) [2] | IC50 [3] | inhibition (INH) [4] | IC50 [5] | IC50 (Albumin [6]) | inhibition (INH) [7] | IC50 [8] | IC50 [9] | inhibition (INH) (Albumin [1]; 200 µM) | Structure (SMILES) |
| --- | --- | --- | --- | --- | --- | --- | --- | --- | --- | --- |
| 36.5% | Not Active | 4.2 µM |  |  |  |  |  |  |  | COc1cc(C(=O)OC[C@H]2O[C@H]3c4c(cc(O)c(OC)c4O)C(=O)O[C@@H]3[C@@H](O)[C@@H]2O)ccc1O |
| 26.2% | 93.27% | 1.7 µM | 97.86% | 76 µM | 322 µM | 97.77% | 60.8 µM | 8.95 µM |  | COc1c(O)cc2c(c1O)[C@@H]1O[C@H](COC(=O)c3cccc(O)c3O)[C@@H](O)[C@H](O)[C@H]1OC2=O |
|  | Not Active | 3 µM |  |  |  |  |  |  | Not Active | COc1c(O)cc2c(c1O)[C@@H]1O[C@H](COC(=O)/C=C/c3ccccc3)[C@@H](O)[C@H](O)[C@H]1OC2=O |
| 21.4% | Not Active | 3.6 µM |  |  |  |  |  |  |  | COc1c(O)cc2c(c1O)[C@@H]1O[C@H](COC(=O)c3ccc([N+](=O)[O-])cc3)[C@@H](O)[C@H](O)[C@H]1OC2=O |
| 49.2% | Not Active | 3.5 µM |  |  |  |  |  |  |  | COc1c(O)cc2c(c1O)[C@@H]1O[C@H](COC(=O)c3ccccc3)[C@@H](O)[C@H](O)[C@H]1OC2=O |
